Source: patent publication US8959984B2, “Proteome-wide quantification of small molecule binding to cellular target proteins” (priority 2007, dated 2015)
Like-named read-outs stand apart in the source and are kept apart here.

What was measured:
YES = YES (Homo sapiens, UniProt P07947); experiment: binding to immobilized V16742 (IVA1/IVA2, HeLa lysate, MS)
ACAD10 = biological target: T1, ACAD10 (Homo sapiens, UniProt Q6JQN1)
T1 sequence (Q6JQN1 1-1059): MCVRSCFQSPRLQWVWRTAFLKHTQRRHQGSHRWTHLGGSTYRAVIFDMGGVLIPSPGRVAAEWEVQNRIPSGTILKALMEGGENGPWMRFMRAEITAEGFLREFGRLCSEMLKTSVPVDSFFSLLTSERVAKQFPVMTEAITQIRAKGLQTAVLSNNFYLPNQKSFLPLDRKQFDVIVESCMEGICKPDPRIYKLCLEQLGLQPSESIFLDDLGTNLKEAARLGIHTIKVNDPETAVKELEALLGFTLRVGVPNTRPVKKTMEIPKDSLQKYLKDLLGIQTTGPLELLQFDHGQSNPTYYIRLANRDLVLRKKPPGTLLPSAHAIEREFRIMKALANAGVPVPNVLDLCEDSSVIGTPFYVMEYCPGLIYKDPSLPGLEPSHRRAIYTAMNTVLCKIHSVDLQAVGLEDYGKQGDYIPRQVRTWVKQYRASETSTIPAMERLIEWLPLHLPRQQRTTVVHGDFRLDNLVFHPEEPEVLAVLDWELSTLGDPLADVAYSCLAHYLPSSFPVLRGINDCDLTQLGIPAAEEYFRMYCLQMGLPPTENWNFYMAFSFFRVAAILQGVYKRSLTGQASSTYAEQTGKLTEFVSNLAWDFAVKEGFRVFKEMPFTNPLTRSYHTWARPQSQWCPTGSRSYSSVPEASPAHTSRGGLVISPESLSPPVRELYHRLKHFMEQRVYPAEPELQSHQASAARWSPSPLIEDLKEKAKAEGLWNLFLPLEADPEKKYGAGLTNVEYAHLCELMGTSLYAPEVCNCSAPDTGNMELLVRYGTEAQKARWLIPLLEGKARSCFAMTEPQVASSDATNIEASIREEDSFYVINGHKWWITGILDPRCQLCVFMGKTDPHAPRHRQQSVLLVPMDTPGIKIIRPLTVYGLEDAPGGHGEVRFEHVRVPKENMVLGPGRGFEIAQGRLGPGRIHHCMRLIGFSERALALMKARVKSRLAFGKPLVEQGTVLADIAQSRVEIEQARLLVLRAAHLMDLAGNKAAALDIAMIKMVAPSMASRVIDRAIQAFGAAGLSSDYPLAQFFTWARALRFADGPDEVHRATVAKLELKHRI

EphB2 = biological target: T2, EphB2 (Homo sapiens, UniProt P29323)
T2 sequence (P29323 19-1055): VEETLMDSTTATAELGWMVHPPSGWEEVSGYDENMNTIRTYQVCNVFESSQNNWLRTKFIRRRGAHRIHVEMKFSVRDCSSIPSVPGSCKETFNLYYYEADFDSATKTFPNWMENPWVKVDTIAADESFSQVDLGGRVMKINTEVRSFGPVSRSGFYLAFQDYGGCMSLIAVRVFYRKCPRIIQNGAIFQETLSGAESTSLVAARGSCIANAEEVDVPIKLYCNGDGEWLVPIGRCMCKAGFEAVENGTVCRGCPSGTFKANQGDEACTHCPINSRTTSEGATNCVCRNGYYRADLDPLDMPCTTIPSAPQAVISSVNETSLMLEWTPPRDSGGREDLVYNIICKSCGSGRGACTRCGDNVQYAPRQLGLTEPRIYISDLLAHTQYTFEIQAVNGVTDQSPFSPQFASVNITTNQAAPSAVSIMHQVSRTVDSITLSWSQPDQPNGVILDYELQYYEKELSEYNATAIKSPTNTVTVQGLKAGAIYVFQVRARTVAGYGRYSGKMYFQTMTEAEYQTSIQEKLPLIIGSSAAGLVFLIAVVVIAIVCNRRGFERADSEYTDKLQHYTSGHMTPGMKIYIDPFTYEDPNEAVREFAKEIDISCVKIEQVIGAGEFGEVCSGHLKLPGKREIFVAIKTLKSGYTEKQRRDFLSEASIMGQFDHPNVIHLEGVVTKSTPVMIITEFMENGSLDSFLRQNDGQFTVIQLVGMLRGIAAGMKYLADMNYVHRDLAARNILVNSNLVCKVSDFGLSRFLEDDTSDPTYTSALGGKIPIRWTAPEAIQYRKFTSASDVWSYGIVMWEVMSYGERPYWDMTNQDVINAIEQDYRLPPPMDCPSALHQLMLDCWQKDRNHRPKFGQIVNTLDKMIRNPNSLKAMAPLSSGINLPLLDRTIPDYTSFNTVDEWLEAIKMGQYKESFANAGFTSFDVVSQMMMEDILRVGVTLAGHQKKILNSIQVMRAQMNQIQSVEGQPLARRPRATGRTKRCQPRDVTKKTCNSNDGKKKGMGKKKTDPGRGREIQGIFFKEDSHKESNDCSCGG

Sepiapterin reductase = Sepiapterin reductase (Homo sapiens, UniProt P35270); experiment: binding to immobilized V16742 (IVA1/IVA2, HeLa lysate, MS)
RIOK2 = biological target: T3, RIOK2 (Homo sapiens, UniProt Q9BVS4); experiment: as above
T3 construct: endogenous in cells; host or cells: HeLa S3

TLK2 = biological target: T4, TLK2 (Homo sapiens, UniProt Q86UE8); experiment: as above
T4 construct: endogenous in cells; host or cells: HeLa S3

[1] = average of two experiments, read-out: Kd Avg

Sequence of Sepiapterin reductase (P35270 whole entry): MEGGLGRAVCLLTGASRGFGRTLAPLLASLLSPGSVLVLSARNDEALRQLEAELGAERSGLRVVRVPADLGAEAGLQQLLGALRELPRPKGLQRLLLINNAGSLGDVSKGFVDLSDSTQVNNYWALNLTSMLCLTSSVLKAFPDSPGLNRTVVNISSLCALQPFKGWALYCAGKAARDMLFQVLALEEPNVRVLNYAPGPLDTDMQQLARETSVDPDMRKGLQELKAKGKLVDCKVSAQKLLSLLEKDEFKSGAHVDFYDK
Sequence of YES (P07947 whole entry): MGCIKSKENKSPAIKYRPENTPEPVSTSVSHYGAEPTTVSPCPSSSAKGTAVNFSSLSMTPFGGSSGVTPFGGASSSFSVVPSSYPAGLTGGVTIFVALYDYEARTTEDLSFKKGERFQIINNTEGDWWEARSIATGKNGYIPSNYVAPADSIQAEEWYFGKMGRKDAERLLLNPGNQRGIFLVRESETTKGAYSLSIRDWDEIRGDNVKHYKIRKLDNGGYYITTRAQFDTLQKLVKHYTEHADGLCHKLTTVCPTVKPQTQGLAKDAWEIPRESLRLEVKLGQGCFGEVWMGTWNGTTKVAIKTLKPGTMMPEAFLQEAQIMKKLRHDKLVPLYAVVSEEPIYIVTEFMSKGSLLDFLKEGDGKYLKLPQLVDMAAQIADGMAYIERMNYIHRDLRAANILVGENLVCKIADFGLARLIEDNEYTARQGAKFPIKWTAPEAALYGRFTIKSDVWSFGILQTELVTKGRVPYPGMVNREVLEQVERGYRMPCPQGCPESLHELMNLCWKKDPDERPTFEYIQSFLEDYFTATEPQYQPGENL
T3 sequence (Q9BVS4 whole entry): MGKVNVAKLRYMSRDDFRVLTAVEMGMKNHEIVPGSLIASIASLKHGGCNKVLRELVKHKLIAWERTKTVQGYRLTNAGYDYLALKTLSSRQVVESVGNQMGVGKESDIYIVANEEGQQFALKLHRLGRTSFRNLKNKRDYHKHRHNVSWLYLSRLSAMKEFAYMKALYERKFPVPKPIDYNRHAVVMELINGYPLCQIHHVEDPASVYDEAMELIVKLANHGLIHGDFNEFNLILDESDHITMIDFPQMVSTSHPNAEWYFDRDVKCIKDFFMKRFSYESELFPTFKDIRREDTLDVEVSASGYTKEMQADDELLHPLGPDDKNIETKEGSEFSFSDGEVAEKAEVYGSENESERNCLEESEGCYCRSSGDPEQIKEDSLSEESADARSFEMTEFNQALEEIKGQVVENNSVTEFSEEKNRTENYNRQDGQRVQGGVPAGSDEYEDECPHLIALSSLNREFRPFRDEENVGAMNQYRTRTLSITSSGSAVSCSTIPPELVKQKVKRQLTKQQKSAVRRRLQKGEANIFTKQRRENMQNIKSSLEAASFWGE
T4 sequence (Q86UE8 whole entry): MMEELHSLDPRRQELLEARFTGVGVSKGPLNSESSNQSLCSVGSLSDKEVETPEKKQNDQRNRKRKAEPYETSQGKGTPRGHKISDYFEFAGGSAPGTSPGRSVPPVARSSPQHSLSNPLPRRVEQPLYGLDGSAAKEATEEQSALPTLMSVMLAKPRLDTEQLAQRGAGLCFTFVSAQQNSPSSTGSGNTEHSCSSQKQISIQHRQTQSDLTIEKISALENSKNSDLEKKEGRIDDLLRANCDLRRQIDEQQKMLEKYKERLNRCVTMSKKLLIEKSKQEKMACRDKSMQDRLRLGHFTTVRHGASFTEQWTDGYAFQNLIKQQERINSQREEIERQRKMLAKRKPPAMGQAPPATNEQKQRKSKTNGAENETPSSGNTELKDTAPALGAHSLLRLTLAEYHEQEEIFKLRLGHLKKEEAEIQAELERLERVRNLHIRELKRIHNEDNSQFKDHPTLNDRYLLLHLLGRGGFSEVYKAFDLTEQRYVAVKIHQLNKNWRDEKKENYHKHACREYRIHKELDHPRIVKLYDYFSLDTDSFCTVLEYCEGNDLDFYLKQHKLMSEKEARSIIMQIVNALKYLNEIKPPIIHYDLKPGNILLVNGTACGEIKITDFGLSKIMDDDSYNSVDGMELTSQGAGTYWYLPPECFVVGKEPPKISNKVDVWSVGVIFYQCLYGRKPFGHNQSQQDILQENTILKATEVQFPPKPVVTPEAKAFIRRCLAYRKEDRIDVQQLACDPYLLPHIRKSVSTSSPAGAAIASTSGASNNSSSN

`CC(C)n1c(=O)ccc2cnc(Nc3ccc(OCCN)cc3)nc21` [compound 16742] was tested, and the “Percent bound at 1.87 μM 16742 conc” value (YES; EXPERIMENT 1) was 4.07%, the “Percent bound at 8.74 μM 16742 conc” value (YES; EXPERIMENT 1) was 25.17% and the “Percent bound at 52 μM 16742 conc” value (YES; EXPERIMENT 1) was 62.69%. For the same molecule, the Kd (YES; EXPERIMENT 1, read-out: Kd) was 29.3 µM, the “Percent bound at 1.87 μM 16742 conc” value (YES; EXPERIMENT 2) was 3.61% and the “Percent bound at 8.74 μM 16742 conc” value (YES; EXPERIMENT 2) was 15.31%. The “Percent bound at 52 μM 16742 conc” value (YES; EXPERIMENT 2) was 54.74%, the Kd (YES; EXPERIMENT 2, read-out: Kd) was 44.3 µM and the Kd (YES; read-out: Kd Avg) was 36.8 µM.

In the case of `COc1cc2ncnc(Nc3ccc(F)c(Cl)c3)c2cc1OCCCN1CCOCC1` [gefitinib], the “rAVERAGE (10 nM/0 nM Gef.)” value (ACAD10) is reported as 1.17, the “rAVERAGE (100 nM/0 nM Gef.)” value (ACAD10) is reported as 0.86 and the “rAVERAGE (1000 nM/0 nM Gef.)” value (ACAD10) is reported as 1.07. The “rAVERAGE (10000 nM/0 nM Gef.)” value (ACAD10) was 0.24, the “rAVERAGE (10 nM/0 nM Gef.)” value (EphB2) was 0.88 and the “rAVERAGE (100 nM/0 nM Gef.)” value (EphB2) was 0.90. For the same molecule, the “rAVERAGE (1000 nM/0 nM Gef.)” value (EphB2) was 0.85 and the “rAVERAGE (10000 nM/0 nM Gef.)” value (EphB2) was 0.33.

For `CC(C)n1c(=O)ccc2cnc(Nc3ccc(OCCN)cc3)nc21` [V16742], the Kd (Sepiapterin reductase) was 58.6 µM, the Kd (Sepiapterin reductase; Kd Avg, Sepiapterin reductase, average of two experiments) was 93 µM and the Kd (Sepiapterin reductase; Kd, Sepiapterin reductase, Experiment 2) was 127 µM. The Kd (Sepiapterin reductase; Kd, Sepiapterin reductase, immobilized V16742) was 93 µM, the “Percent bound at various 16742 conc” value (Sepiapterin reductase; Sepiapterin reductase, Experiment 1, 1.87 μM 16742) was 2.16% and the “Percent bound at various 16742 conc” value (Sepiapterin reductase; Sepiapterin reductase, Experiment 1, 8.74 μM 16742) was 2.59%. For the same molecule, the “Percent bound at various 16742 conc” value (Sepiapterin reductase; Sepiapterin reductase, Experiment 1, 52 μM 16742) was 51.84%, the “Percent bound at various 16742 conc” value (Sepiapterin reductase; Sepiapterin reductase, Experiment 2, 1.87 μM 16742) was 1.04% and the “Percent bound at various 16742 conc” value (Sepiapterin reductase; Sepiapterin reductase, Experiment 2, 8.74 μM 16742) was 1.52%. For the same molecule, the “Percent bound at various 16742 conc” value (Sepiapterin reductase; Sepiapterin reductase, Experiment 2, 52 μM 16742) was 30.43%, the “Percent bound at various 16742 conc” value (RIOK2; Experiment 1, 8.74 μM 16742) was 11.61% and the “Percent bound at various 16742 conc” value (RIOK2; Experiment 1, 52 μM 16742) was 58.06%. For the same molecule, the Kd (RIOK2; Experiment 1, read-out: Kd) was 42.6 µM, the “Percent bound at various 16742 conc” value (RIOK2; Experiment 2, 1.87 μM 16742) was 1.55% and the “Percent bound at various 16742 conc” value (RIOK2; Experiment 2, 8.74 μM 16742) was 7.91%. For the same molecule, the “Percent bound at various 16742 conc” value (RIOK2; Experiment 2, 52 μM 16742) was 48.34%, the Kd (RIOK2; Experiment 2, read-out: Kd) was 60.8 µM and the Kd (RIOK2; [1]) was 51.7 µM. The “Percent bound at various 16742 conc” value (TLK2; Experiment 1, 1.87 μM 16742) was 2.49%, the “Percent bound at various 16742 conc” value (TLK2; Experiment 1, 8.74 μM 16742) was 3.89% and the “Percent bound at various 16742 conc” value (TLK2; Experiment 1, 52 μM 16742) was 58.72%. For the same molecule, the Kd (TLK2; Experiment 1, read-out: Kd) was 47.3 µM, the “Percent bound at various 16742 conc” value (TLK2; Experiment 2, 1.87 μM 16742) was 1.24% and the “Percent bound at various 16742 conc” value (TLK2; Experiment 2, 8.74 μM 16742) was 3.73%. For the same molecule, the “Percent bound at various 16742 conc” value (TLK2; Experiment 2, 52 μM 16742) was 41.78%, the Kd (TLK2; Experiment 2, read-out: Kd) was 80 µM and the Kd (TLK2; [1]) was 63.7 µM.
